In patent publication US8148391B2 (Cephalon, Inc., priority 2006, dated 2012):

Key:
[1] = target: T1, baculovirus-expressed ALK (Homo sapiens, UniProt Q9UM73); test: ALK Kinase Assay (ELISA-type, time-resolved fluorescence); assay type: biochemical; conditions: ALK kinase inhibition, 1 μM ATP (Km level); read-out: ALK Activity
T1 construct: host or cells: baculovirus expression system
In short: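 Wells were coated with phospholipase C-γ at 10 μg/mL in Tris-buffered saline. Adding 30 ng/ml enzyme started the reaction, which ran at 37° C for 15 minutes before Eu-N1 PT66 antibody detection. Percent inhibition versus log10 concentration gave IC50 by variable-slope fit.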

[2] = target: T2, c-Met (cytoplasmic domain) (Homo sapiens, UniProt P08581); test: c-Met Kinase Assay (same methods as for ALK, with modifications); assay type: biochemical; conditions: c-Met kinase inhibition, 1 μM ATP (Km level); read-out: cMet Activity
T2 construct: 10 ng/mL c-Met (cytoplasmic domain, Invitrogen Corporation #PV3143); purchased Invitrogen Corporation PV3143
In short: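 IC50 values were fitted by variable-slope sigmoidal regression of percent inhibition against log compound concentration. Phosphorylation was read with Eu-N1 PT66 antibody after a 15 min, 37 °C reaction. The reaction was initiated with 10 ng/mL c-Met cytoplasmic domain on wells coated with 10 μg/mL PLC-γ in TBS.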

T2 sequence (P08581 956-1390 limits assumed): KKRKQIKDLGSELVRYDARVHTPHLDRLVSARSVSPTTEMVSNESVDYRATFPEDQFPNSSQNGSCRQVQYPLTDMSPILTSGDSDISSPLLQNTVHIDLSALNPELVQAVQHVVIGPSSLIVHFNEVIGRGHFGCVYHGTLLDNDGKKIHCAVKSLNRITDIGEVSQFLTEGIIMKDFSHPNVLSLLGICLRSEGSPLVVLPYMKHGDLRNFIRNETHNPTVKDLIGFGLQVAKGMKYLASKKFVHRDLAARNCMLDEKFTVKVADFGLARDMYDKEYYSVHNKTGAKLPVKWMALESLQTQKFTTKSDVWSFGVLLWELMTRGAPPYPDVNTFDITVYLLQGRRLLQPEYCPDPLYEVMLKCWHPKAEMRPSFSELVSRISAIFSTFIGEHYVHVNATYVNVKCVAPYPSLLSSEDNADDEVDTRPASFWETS
T1 sequence (Q9UM73 19-1620): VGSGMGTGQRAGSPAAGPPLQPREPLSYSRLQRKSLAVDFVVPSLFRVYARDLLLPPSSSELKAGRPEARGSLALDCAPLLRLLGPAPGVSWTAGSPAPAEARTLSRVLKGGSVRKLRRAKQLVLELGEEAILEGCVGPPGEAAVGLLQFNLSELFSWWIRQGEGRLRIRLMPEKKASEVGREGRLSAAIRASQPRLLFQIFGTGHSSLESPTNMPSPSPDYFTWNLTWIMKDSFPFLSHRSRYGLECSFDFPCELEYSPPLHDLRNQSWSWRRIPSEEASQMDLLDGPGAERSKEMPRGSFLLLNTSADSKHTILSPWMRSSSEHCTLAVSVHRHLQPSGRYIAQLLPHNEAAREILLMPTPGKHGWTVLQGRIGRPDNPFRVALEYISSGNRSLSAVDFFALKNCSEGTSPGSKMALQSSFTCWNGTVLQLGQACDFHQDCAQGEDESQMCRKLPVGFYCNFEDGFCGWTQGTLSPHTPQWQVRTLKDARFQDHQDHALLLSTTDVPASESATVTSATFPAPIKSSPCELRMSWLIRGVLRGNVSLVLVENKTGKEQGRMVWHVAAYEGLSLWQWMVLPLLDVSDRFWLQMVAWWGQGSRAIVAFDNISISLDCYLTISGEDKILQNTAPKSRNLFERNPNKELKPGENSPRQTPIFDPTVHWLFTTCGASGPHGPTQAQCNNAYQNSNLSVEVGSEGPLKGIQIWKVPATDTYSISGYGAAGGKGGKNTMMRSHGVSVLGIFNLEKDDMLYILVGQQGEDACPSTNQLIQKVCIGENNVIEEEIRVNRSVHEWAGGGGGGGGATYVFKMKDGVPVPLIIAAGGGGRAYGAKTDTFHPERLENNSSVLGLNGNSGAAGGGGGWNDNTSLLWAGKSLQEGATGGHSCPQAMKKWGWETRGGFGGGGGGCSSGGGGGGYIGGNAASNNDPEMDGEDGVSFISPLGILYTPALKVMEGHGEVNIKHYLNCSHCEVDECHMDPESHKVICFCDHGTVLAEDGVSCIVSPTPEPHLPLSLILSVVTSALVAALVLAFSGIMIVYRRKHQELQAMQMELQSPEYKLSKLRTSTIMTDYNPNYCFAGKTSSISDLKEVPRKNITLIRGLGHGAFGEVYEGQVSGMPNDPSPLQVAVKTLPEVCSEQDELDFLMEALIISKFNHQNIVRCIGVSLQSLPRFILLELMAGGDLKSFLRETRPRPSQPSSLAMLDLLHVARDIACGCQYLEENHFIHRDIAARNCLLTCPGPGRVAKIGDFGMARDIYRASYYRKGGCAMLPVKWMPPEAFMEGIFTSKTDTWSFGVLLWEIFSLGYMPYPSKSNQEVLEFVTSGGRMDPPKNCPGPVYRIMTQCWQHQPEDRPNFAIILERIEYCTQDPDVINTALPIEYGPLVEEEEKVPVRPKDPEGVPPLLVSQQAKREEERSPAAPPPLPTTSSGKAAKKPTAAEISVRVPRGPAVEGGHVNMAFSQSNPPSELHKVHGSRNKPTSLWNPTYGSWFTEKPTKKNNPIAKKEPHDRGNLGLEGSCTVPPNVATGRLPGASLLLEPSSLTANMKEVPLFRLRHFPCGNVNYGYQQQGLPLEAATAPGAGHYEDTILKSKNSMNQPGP

Compound | IC50 [1] [µM] | IC50 [2] [µM]
CNC(=O)c1ccccc1Nc1nc(Nc2ccc3c(c2OC)CCCC(=O)N3CCOC)ncc1Cl [Example 126, 2-{5-Chloro-2-[6-methoxy-1-(2-methoxy-ethyl)-2-oxo-2,3,4,5-tetrahydro-1H-benzo[b]azepin-7-ylamino]-pyrimidin-4-ylamino}-N-methyl-benzamide] | < 0.1 | 1 to 10
COCCN1C(=O)CCCc2c1ccc(Nc1ncc(Cl)c(Nc3ccc(N4CCOCC4)cc3OC)n1)c2OC [Example 127, 7-[5-Chloro-4-(2-methoxy-4-morpholin-4-yl-phenylamino)-pyrimidin-2-ylamino]-6-methoxy-1-(2-methoxy-ethyl)-1,3,4,5-tetrahydro-benzo[b]azepin-2-one] | < 0.1 | > 10
COCCN1C(=O)CCCc2c1ccc(Nc1ncc(Cl)c(N[C@@H]3[C@H](C(N)=O)[C@H]4C=C[C@@H]3C4)n1)c2OC [Example 128, (2-exo,3-exo)-3-{5-Chloro-2-[6-methoxy-1-(2-methoxy-ethyl)-2-oxo-2,3,4,5-tetrahydro-1H-benzo[b]azepin-7-ylamino]-pyrimidin-4-ylamino}-bicyclo[2.2.1]hept-5-ene-2-carboxylic acid amide] | < 0.1 | > 10
CCN1C(=O)CCCc2c1ccc(Nc1ncc(Cl)c(NC3C4CCC(C4)C3C(N)=O)n1)c2OC (stereo not drawn) [Example 129, (2-exo, 3-exo)-3-[5-Chloro-2-(1-ethyl-6-methoxy-2-oxo-2,3,4,5-tetrahydro-1H-benzo[b]azepin-7-ylamino)-pyrimidin-4-ylamino]-bicyclo[2.2.1]heptane-2-carboxylic acid amide] | < 0.1 | > 10
CCN1C(=O)CCCc2cc(Nc3ncc(Cl)c(N[C@@H]4CCCC[C@H]4NS(C)(=O)=O)n3)c(OC)cc21 [Example 130, N-{(1R,2R)-2-[5-Chloro-2-(1-ethyl-8-methoxy-2-oxo-2,3,4,5-tetrahydro-1H-benzo[b]azepin-7-ylamino)-pyrimidin-4-ylamino]-cyclohexyl}-methanesulfonamide] | < 0.1 | > 10
CCN1C(=O)CCCc2c1ccc(Nc1ncc(Cl)c(N[C@@H]3[C@H](C(N)=O)[C@H]4C=C[C@@H]3C4)n1)c2OC [Example 132, (1R,2R,3S,4S)-3-[5-Chloro-2-(1-ethyl-6-methoxy-2-oxo-2,3,4,5-tetrahydro-1H-benzo[b]azepin-7-ylamino)-pyrimidin-4-ylamino]-bicyclo[2.2.1]hept-5-ene-2-carboxylic acid amide] | 1 to 10 | > 10
CCN1C(=O)CCCc2c1ccc(Nc1ncc(Cl)c(N[C@H]3[C@@H](C(N)=O)[C@@H]4C=C[C@H]3C4)n1)c2OC [Example 133, (1S,2S,3R,4R)-3-[5-Chloro-2-(1-ethyl-6-methoxy-2-oxo-2,3,4,5-tetrahydro-1H-benzo[b]azepin-7-ylamino)-pyrimidin-4-ylamino]-bicyclo[2.2.1]hept-5-ene-2-carboxylic acid amide] | < 0.1 | > 10
CCN1C(=O)CCCc2cc(Nc3ncc(Cl)c(Nc4ccc(N5CCOCC5)cc4OC)n3)c(OC)cc21 [Example 135, 7-[5-Chloro-4-(2-methoxy-4-morpholin-4-yl-phenylamino)-pyrimidin-2-ylamino]-1-ethyl-8-methoxy-1,3,4,5-tetrahydro-benzo[b]azepin-2-one] | < 0.1 | > 10
CCN1C(=O)CCCc2cc(Nc3ncc(Cl)c(Nc4cc(Cl)ccc4OC)n3)c(OC)cc21 [Example 137, 7-[5-Chloro-4-(5-chloro-2-methoxy-phenylamino)-pyrimidin-2-ylamino]-1-ethyl-8-methoxy-1,3,4,5-tetrahydro-benzo[b]azepin-2-one] | 0.1 to 1 | > 10
CCN1C(=O)CCCc2cc(Nc3ncc(Cl)c(Nc4c(F)cccc4C(=O)NC)n3)c(OC)cc21 [Example 138, 2-[5-Chloro-2-(1-ethyl-8-methoxy-2-oxo-2,3,4,5-tetrahydro-1H-benzo[b]azepin-7-ylamino)-pyrimidin-4-ylamino]-3-fluoro-N-methyl-benzamide] | < 0.1 | 1 to 10
COc1cc(N2CCOCC2)ccc1Nc1nc(Nc2ccc3c(c2OC)CCCC(=O)N3)ncc1Cl [Example 140, 7-[5-Chloro-4-(2-methoxy-4-morpholin-4-yl-phenylamino)-pyrimidin-2-ylamino]-6-methoxy-1,3,4,5-tetrahydro-benzo[b]azepin-2-one] | < 0.1 | > 10
CCN1C(=O)C(C)(C)CCc2c1ccc(Nc1ncc(Cl)c(Nc3ccc(N4CCOCC4)cc3OC)n1)c2OC [Example 141, 7-[5-Chloro-4-(2-methoxy-4-morpholin-4-yl-phenylamino)-pyrimidin-2-ylamino]-1-ethyl-6-methoxy-3,3-dimethyl-1,3,4,5-tetrahydro-benzo[b]azepin-2-one] | 0.1 to 1 | > 10
CCN1C(=O)C(C)(C)CCc2c1ccc(Nc1ncc(Cl)c(NC3C4C=CC(C4)C3C(N)=O)n1)c2OC (stereo not drawn) [Example 142, (2-exo, 3-exo)-3-[5-Chloro-2-(1-ethyl-6-methoxy-3,3-dimethyl-2-oxo-2,3,4,5-tetrahydro-1H-benzo[b]azepin-7-ylamino)-pyrimidin-4-ylamino]-bicyclo[2.2.1]hept-5-ene-2-carboxylic acid amide] | < 0.1 | > 10
CCN1C(=O)C(C)(C)CCc2c1ccc(Nc1ncc(Cl)c(N[C@@H]3CCCC[C@H]3NS(C)(=O)=O)n1)c2OC [Example 143, N-{(1R,2R)-2-[5-Chloro-2-(1-ethyl-6-methoxy-3,3-dimethyl-2-oxo-2,3,4,5-tetrahydro-1H-benzo[b]azepin-7-ylamino)-pyrimidin-4-ylamino]-cyclohexyl}-methanesulfonamide] | < 0.1 | > 10
CCN1C(=O)C(C)(C)CCc2c1ccc(Nc1ncc(Cl)c(Nc3ccccc3C(=O)NC)n1)c2OC [Example 144, 2-[5-Chloro-2-(1-ethyl-6-methoxy-3,3-dimethyl-2-oxo-2,3,4,5-tetrahydro-1H-benzo[b]azepin-7-ylamino)-pyrimidin-4-ylamino]-N-methyl-benzamide] | < 0.1 | 1 to 10
COCCN1CCc2ccc(Nc3ncc(Cl)c(Nc4ccccc4OC)n3)cc2CC1 [Example 145, 5-Chloro-N*2*-[3-(2-methoxy-ethyl)-2,3,4,5-tetrahydro-1H-benzo[d]azepin-7-yl]-N*4*-(2-methoxy-phenyl)-pyrimidine-2,4-diamine] | < 0.1 | 1 to 10
COCCN1CCc2ccc(Nc3ncc(Cl)c(Nc4cc(Cl)ccc4OC)n3)cc2CC1 [Example 146, 5-Chloro-N*4*-(5-chloro-2-methoxy-phenyl)-N*2*-[3-(2-methoxy-ethyl)-2,3,4,5-tetrahydro-1H-benzo[d]azepin-7-yl]-pyrimidine-2,4-diamine] | < 0.1 | 0.1 to 1
CCC1C(=O)N(CC)CCc2cc(Nc3ncc(Cl)c(NC4CCCCC4NS(C)(=O)=O)n3)c(OC)cc21 [Example 151, N-{(1R,2R)-2-[5-Chloro-2-(1,3-diethyl-8-methoxy-2-oxo-2,3,4,5-tetrahydro-1H-benzo[d]azepin-7-ylamino)-pyrimidin-4-ylamino]-cyclohexyl-methanesulfonamide] | < 0.1 | > 10
